Results from patent publication US9290517B2, “Azabenzimidazole hexahydrofuro[3,2-b]furan derivatives” (Merck Sharp & Dohme Corp., priority 2012, dated 2016).

Tests used:
ob/ob and db/db mice = conditions: following 8 weeks of administration; cited from earlier work
[1] = target: recombinant human AMPK complex 7 (containing α2β1γ1) (Homo sapiens (Human), UniProt P54646+Q9Y478); experiment: in vitro AMPK activation assay (AMPKSAMSF), complex 7; type: biochemical; conditions: for Emax: 10-point titration, expressed as % maximum AMP activation; for EC50: inflection point reflecting 50% of the maximum activation, table head names AMPK complex 7
Sequence of recombinant human AMPK complex 7 (containing α2β1γ1) (P54646 whole entry): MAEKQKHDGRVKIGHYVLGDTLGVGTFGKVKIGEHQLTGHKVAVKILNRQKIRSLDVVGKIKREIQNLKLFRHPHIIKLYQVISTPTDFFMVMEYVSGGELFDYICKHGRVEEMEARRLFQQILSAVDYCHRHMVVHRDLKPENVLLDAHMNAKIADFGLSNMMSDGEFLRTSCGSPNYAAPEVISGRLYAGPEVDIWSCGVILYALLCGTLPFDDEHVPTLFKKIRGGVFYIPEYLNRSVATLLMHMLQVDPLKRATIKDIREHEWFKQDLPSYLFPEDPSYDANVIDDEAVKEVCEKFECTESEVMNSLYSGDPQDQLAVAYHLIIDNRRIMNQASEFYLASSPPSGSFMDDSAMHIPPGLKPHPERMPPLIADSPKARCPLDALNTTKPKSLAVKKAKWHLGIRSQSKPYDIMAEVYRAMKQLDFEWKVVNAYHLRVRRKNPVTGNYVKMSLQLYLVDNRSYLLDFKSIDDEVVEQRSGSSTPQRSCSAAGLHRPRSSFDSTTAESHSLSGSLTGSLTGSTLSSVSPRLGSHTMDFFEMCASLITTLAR
Sequence of recombinant human AMPK complex 7 (containing α2β1γ1) (Q9Y478 whole entry): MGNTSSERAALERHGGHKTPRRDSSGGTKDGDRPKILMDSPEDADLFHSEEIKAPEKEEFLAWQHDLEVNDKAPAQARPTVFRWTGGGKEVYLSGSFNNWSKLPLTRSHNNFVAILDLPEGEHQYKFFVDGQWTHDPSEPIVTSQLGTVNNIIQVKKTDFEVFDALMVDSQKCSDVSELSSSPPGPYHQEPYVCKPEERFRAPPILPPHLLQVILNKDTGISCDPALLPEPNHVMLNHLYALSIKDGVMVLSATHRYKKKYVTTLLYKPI
Sequence of recombinant human AMPK complex 7 (containing α2β1γ1) (P54619 whole entry partner): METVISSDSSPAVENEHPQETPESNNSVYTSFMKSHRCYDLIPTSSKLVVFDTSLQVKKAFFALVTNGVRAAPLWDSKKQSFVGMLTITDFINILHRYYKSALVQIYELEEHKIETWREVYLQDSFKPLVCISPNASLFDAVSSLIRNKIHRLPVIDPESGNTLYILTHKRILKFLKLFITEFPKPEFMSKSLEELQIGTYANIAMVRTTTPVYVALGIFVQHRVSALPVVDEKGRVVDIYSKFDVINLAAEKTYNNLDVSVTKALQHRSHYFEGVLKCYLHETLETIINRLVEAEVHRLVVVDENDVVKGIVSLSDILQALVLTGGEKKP
Method: AMPKSAMSF (in vitro AMPK activation assay)
The recombinant human AMPK complex 1 (containing α1β1γ1) or AMPK complex 7 (containing α2β1γ1) was obtained from baculovirus expression system. Recombinant viruses were generated by cotransfection of AMPK/pBacPak9 clones with Baculogold baculovirus DNA (Pharmingen) in spodoptera frugiperda 21 cells according to the manufacturer's instructions. Each round of virus amplification was performed for 5 days in Grace's medium containing 10% serum. Virus that had been subjected to three rounds of amplification was used for all protein production procedures. To express the AMPK complex, sf21 cells were adapted to serum free medium (SF900II, Invitrogen) by sequential dilution from serum containing stocks into SF900II medium and maintained in shaker flasks at 90 rpm at 27° C. The recombinant AMPK enzyme complex was produced by triple infection, one recombinant virus for each of the subunits, in sf21 cells under serum free conditions. Cells were infected in log phase, 1×10^6 cells/ml, at a multiplicity of infection of 5. Cells were harvested by centrifugation at 10,000×g for 15 minutes after 72 hours of infection with viruses. The insect cell pellet from 2 liters of culture was resuspended in 50 ml lysis buffer (20 mM Tris-HCl, 50 mM NaCl, 50 mM NaF, 30 mM Na PPi, 0.25 M sucrose, 10 mM ZnCl2, 2 mM DTT, 0.4 mg/ml digitonin) and subjected to two cycles of freeze-thaw lysis in a dry-ice ethanol bath. Insoluble material was removed by centrifugation at 10,000×g and the supernatant was fractionated with use of polyethylene glycol (PEG). The protein fraction precipitating between 2.5 and 6% PEG was used for further purification using a Blue-Sepharose step (Zhou et al, J. Clin. Invest. 108, 1167-1174, 2001).
The in vitro AMPK activation assay is performed in a volume of 30 μl in a 384-well plate. Enzyme reactions were assembled in the microtiter plate by adding 15 μl of 2× enzyme in assay buffer (20 mM HEPES, pH 7.3, 5 mM MgCl2, 3 mM DTT, 0.01% Brij 35 and CamK Kinase, to activate AMPK) to wells which contained either DMSO or compound. The reaction was initiated with the addition of 15 μl 2× substrate mixture containing 200 μM ATP, and 3.0 μM fluorescently labeled SAMS (5-FAM-HMRSAMSGLHLVKRR-COOH) in assay buffer. After 45-minute incubation at 25° C., the reaction was stopped by the addition of 70 μl stop buffer (100 mM HEPES, pH 7.3, 40 mM EDTA, 0.015% Brij 35). Phosphorylated 5-FAM SAMS product is assessed using a Caliper EZ Reader LabChip microfluidics reader. Product conversion is determined by calculating the peak heights of the substrate and product and reporting the product/(product+substrate) peak ratio. The 10-point titration data were expressed as % maximum AMP activation. The results were plotted using 4 parameter fit and the inflection point reflecting 50% of the maximum activation was reported as the EC50.

Row | Emax [1] [%] | EC50 [1] [nM] | Structure (SMILES) | blood glucose reduction (ob/ob and db/db mice) [%]
1 | 72 | 6 | C=CCO[C@@H]1CO[C@H]2[C@@H]1OC[C@H]2Oc1nc2nc(-c3ccc(-c4ccccc4)cc3)c(Cl)cc2[nH]1 [Example 18] | 
2 | 285 | 3 | Cc1nnc(-c2ccc(-c3ccc(-c4nc5nc(O[C@@H]6CO[C@H]7[C@@H]6OC[C@H]7O)[nH]c5cc4Cl)cc3)cc2)o1 [Example 87] | 
3 | 268 | 5 | CCN(CC)c1ccc(-c2ccc(-c3nc4nc(O[C@@H]5CO[C@H]6[C@@H]5OC[C@H]6O)[nH]c4cc3Cl)cc2)cc1 [Example 105] | 
4 | 350 | 6 | O=C(O)C1CCC(c2ccc(-c3ccc(-c4nc5nc(O[C@@H]6CO[C@H]7[C@@H]6OC[C@H]7O)[nH]c5cc4Cl)cc3)cc2)=N1 (stereo partly drawn) [Example 125] | 
5 | 281 | 4 | Cn1c(-c2ccc(-c3ccc(-c4nc5nc(O[C@@H]6CO[C@H]7[C@@H]6OC[C@H]7O)[nH]c5cc4Cl)cc3)cc2)cnc1N [Example 127] | 
6 | 291 | 2 | Oc1ccnc(-c2ccc(-c3ccc(-c4nc5nc(O[C@@H]6CO[C@H]7[C@@H]6OC[C@H]7O)[nH]c5cc4Cl)cc3)cc2)n1 [Example 130] | 
7 | 359 | 1 | O[C@@H]1CO[C@H]2[C@@H]1OC[C@H]2Oc1nc2nc(-c3ccc(-c4ccc(C5CNCCO5)cc4)cc3)c(Cl)cc2[nH]1 (stereo partly drawn) [Example 133] | 
8 | 333 | 4 | O=c1[nH]c(-c2ccc(-c3ccc(-c4nc5nc(O[C@@H]6CO[C@H]7[C@@H]6OC[C@H]7O)[nH]c5cc4Cl)cc3)cc2)no1 [Example 138] | 
9 | 337 | 2 | O[C@@H]1CO[C@H]2[C@@H]1OC[C@H]2Oc1nc2nc(-c3ccc(-c4ccc(Cn5ncnn5)cc4)cc3)c(Cl)cc2[nH]1 [Example 142] | 
10 | 348 | 8 | CC1(c2ccc(-c3ccc(-c4nc5nc(O[C@@H]6CO[C@H]7[C@@H]6OC[C@H]7O)[nH]c5cc4Cl)cc3)cc2)COC1 [Example 145] | 

Second part, the compound before the results:

Row | Structure (SMILES) | Emax [1] [%] | EC50 [1] [nM] | blood glucose reduction (ob/ob and db/db mice) [%]
11 | NC(=O)c1ncn([C@@H]2O[C@H](CO)[C@@H](O)[C@H]2O)c1N [AICAR] |  |  | 35
12 | CC(C)(O)CN1Cc2cn(-c3ccc(-c4nc5nc(O[C@@H]6CO[C@H]7[C@@H]6OC[C@H]7O)[nH]c5cc4Cl)cc3)nc2C1 [Example 14, (3R,3aR,6R,6aR)-6-[[6-chloro-5-[4-[5-(2-hydroxy-2-methyl-propyl)-5,6-dihydro-4H-pyrrolo[3,4-c]pyrazol-5-ium-2-yl]phenyl]-1H-imidazo[4,5-b]pyridin-2-yl]oxy]-2,3,3a,5,6,6a-hexahydrofuro[3,2-b]furan-3-ol; 2,2,2-trifluoroacetate] | 276 | 29 | 
13 | O[C@@H]1CO[C@H]2[C@@H]1OC[C@H]2Oc1nc2nc(-c3ccc(C#CC4CCNCC4)cc3)c(Cl)cc2[nH]1 [Example 71] | 420 | 10 | 
14 | O=c1[nH]ccn1-c1ccc(-c2ccc(-c3nc4nc(O[C@@H]5CO[C@H]6[C@@H]5OC[C@H]6O)[nH]c4cc3Cl)cc2)cc1 [Example 73] | 357 | 4 | 
15 | CC(CO)(CO)c1ccc(-c2ccc(-c3nc4nc(O[C@@H]5CO[C@H]6[C@@H]5OC[C@H]6O)[nH]c4cc3Cl)cc2)cc1 [Example 79] | 337 | 2 | 
16 | O=C(O)CCCc1ccc(-c2ccc(-c3nc4nc(O[C@@H]5CO[C@H]6[C@@H]5OC[C@H]6O)[nH]c4cc3Cl)cc2)cc1 [Example 86] | 314 | 4 | 
17 | N#Cc1ccc(-c2ccc(-c3nc4nc(O[C@@H]5CO[C@H]6[C@@H]5OC[C@H]6O)[nH]c4cc3Cl)cc2)c(F)c1 [Example 102] | 304 | 5 | 
18 | O[C@@H]1CO[C@H]2[C@@H]1OC[C@H]2Oc1nc2nc(-c3ccc(-c4ccc(C5Cc6nccn6C5)cc4)cc3)c(Cl)cc2[nH]1 (stereo partly drawn) [Example 126] | 303 | 3 | 
19 | O[C@@H]1CO[C@H]2[C@@H]1OC[C@H]2Oc1nc2nc(-c3ccc(-c4ccc(-n5cc(C(O)(O)C(F)(F)F)nn5)cc4)cc3)c(Cl)cc2[nH]1 [Example 128] | 286 | 2 | 
20 | O=c1ncn(-c2ccc(-c3ccc(-c4nc5nc(O[C@@H]6CO[C@H]7[C@@H]6OC[C@H]7O)[nH]c5cc4Cl)cc3)cc2)[nH]1 [Example 129] | 305 | 1 | 
21 | Cc1cc(-c2ccc(-c3ccc(-c4nc5nc(O[C@@H]6CO[C@H]7[C@@H]6OC[C@H]7O)[nH]c5cc4Cl)cc3)cc2)c(=O)[nH]n1 [Example 131] | 289 | 3 | 
22 | OCc1ccc(-c2ccc(-c3nc4nc(O[C@@H]5CO[C@H]6[C@@H]5OC[C@H]6O)[nH]c4cc3Cl)cc2)cc1 [Example 146] | 354 | 4 | 
23 | O[C@@H]1CO[C@H]2[C@@H]1OC[C@H]2Oc1nc2nc(-c3ccc(-c4ccc(Cn5ccnc5)cc4)cc3)c(Cl)cc2[nH]1 [Example 147] | 348 | 4 | 
24 | O=C1CC(c2ccc(-c3ccc(-c4nc5nc(O[C@@H]6CO[C@H]7[C@@H]6OC[C@H]7O)[nH]c5cc4Cl)cc3)cc2)CN1 (stereo partly drawn) [Example 149] | 322 | 2 | 
25 | O=c1ccn(-c2ccc(-c3ccc(-c4nc5nc(O[C@@H]6CO[C@H]7[C@@H]6OC[C@H]7O)[nH]c5cc4Cl)cc3)cc2)[nH]1 [Example 150] | 322 | 1 | 
26 | CN(C)CCOc1ccc(-c2ccc(-c3nc4nc(O[C@@H]5CO[C@H]6[C@@H]5OC[C@H]6O)[nH]c4cc3Cl)cc2)cc1 [Example 151] | 323 | 2 | 
